# According to patent US9688691B2, “Macrocyclic quinazole derivatives and their use as MTKI” (Janssen Pharmaceutica NV, priority 2004, dated 2017):
# Test system: not given
# Experiment: not given
# Conditions: not given
row,melting point,SMILES
1,112 °C,CC(=O)NCCNCCCOc1cc2ncnc3c2cc1OCCCNC(=O)[C@H](C)N(C)Cc1cc(F)c(Cl)cc1N3 [Compound 4]
2,136 °C,CC(=O)NCCN1CCN(CCCOc2cc3ncnc4c3cc2OCCCNC(=O)[C@H](C)N(C)Cc2cc(F)c(Cl)cc2N4)CC1 [Compound 6]

# Biological target: CDK5/p35 human (Homo sapiens, UniProt Q00535)
# Sequence (Q00535 whole entry): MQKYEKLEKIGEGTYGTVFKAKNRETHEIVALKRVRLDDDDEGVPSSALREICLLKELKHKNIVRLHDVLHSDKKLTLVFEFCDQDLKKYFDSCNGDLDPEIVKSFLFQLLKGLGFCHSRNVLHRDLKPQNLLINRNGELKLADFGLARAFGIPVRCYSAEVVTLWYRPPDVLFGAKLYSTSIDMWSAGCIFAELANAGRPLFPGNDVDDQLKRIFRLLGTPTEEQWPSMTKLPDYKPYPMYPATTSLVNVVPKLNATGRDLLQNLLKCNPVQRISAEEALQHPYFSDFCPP
# Sequence (Q15078 whole entry partner): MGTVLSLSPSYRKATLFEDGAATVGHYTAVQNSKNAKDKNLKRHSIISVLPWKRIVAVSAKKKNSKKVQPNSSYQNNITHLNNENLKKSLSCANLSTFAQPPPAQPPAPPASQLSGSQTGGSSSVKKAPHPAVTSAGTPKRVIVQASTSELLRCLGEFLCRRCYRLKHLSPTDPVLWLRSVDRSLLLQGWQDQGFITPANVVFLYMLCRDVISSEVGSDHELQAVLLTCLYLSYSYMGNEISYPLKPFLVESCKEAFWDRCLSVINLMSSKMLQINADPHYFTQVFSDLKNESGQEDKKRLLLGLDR
# Experiment: Kinase profiling, glass-fiber filter technology: CDK5/p35
# Type: biochemical
# Conditions: test concentration of 10^−6 M; read-out: CDK5/p35 inhibition score
# Protocol: (§1) The in vitro inhibition of a panel of kinases was assessed using the glass-fiber filter technology as described by Davies, S. P. et al., Biochem J. (2000), 351; p. 95-105.
# (§2) In the glass-fiber filter technology the activity of the kinase of interest is measured using an appropriate substrate that is incubated with the aforementioned kinase protein in the presence of (^33P) radiolabeled ATP. (^33P) Phosporylation of the substrate is subsequently measured as radioactivity bound on a glassfiber-filter.
# (§3) All kinases are pre-diluted to a 10× working concentration prior to addition into the assay. The composition of the dilution buffer for each kinase is detailed below.
# (§4) All substrates are dissolved and diluted to working stocks in de-ionised water.
# (§5) In a final reaction volume of 25 μl, CDK5/p35 human (5-10 mU) is incubated with 8 mM MOPS pH 7.0, 0.2 mM EDTA, 0.1 mg/ml histone H1, 10 mM MgAcetate and [γ-^33P-ATP] (specific activity approx. 500 cpm/pmol, concentration as required). The reaction is initiated by the addition of the MgATP mix. After incubation for 40 minutes at room temperature, the reaction is stopped by the addition of 5 μl of a 3% phosphoric acid solution. 10 μl of the reaction is then spotted onto a P30 filtermat and washed three times for 5 minutes in 75 mM phosphoric acid and once in methanol prior to drying and scintillation counting.
row,inhibition at 1 µM,SMILES
1,10 to 30%,COc1cc2ncnc3c2cc1OCCCN(CCN1CCOCC1)C(=O)CNC(=O)Cc1ccc(Cl)cc1N3 [Compound 15]

# Biological target: CDK6/cyclinD3 human (Homo sapiens, UniProt Q00534)
# Sequence (Q00534 whole entry): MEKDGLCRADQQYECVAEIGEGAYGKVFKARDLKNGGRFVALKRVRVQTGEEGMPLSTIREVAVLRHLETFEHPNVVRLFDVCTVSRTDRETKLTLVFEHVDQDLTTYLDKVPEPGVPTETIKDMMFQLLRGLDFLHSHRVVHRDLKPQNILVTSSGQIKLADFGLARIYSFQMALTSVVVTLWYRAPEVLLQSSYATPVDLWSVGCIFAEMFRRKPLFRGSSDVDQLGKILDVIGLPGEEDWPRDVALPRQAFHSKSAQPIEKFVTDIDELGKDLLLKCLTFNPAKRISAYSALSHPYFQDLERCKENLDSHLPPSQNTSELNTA
# Sequence (P30281 whole entry partner): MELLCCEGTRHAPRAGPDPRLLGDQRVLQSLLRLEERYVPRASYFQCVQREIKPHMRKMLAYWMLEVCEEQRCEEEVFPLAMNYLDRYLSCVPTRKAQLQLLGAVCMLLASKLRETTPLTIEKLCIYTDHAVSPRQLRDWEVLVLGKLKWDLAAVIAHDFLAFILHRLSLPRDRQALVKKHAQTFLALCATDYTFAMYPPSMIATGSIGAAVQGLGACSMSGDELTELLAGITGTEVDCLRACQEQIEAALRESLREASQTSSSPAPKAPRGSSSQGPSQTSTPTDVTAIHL
# Experiment: Kinase profiling, glass-fiber filter technology: CDK6/cyclinD3
# Type: biochemical
# Conditions: test concentration of 10^−6 M; read-out: CDK6/cyclinD3 inhibition score
# Protocol: as §1, §2, §3, §4
# as §5, with “CDK6/cyclinD3” for “CDK5/p35”
row,inhibition at 1 µM,SMILES
1,10 to 30%,COCCOCCOc1cc2ncnc3c2cc1OCCCCCN(C)Cc1ccc(Br)cc1N3 [Int. 43]

# Biological target: Fgr human (Homo sapiens, UniProt P09769)
# Sequence (P09769 whole entry): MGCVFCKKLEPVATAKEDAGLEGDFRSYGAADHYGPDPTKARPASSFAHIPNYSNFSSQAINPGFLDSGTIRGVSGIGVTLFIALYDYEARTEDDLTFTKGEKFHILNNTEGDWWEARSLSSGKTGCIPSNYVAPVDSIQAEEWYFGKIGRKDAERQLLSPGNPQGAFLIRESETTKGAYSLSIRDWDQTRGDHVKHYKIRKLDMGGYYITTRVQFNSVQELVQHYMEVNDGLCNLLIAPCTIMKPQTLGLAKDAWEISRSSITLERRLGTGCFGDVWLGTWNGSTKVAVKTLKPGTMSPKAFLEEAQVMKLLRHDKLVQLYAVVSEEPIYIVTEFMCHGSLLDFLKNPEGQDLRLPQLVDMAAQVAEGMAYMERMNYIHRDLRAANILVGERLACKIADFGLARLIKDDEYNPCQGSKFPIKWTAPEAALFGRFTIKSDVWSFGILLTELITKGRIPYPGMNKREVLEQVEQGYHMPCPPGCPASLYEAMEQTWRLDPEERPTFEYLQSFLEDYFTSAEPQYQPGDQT
# Experiment: Kinase profiling, glass-fiber filter technology: Fgr
# Type: biochemical
# Conditions: test concentration of 10^−6 M; read-out: Fgr inhibition score
# Protocol: as §1, §2, §3, §4
# as §5, with “Fgr” for “CDK5/p35”, “poly(Glu, Tyr) 4:1,” for “histone H1,”, “Filtermat A” for “P30 filtermat”
row,inhibition at 1 µM,SMILES
1,10 to 30%,CC(=O)OCCN(C)CCCOc1cc2ncnc3c2cc1OCCCNC(=O)[C@H](C)N(C)Cc1cc(F)c(Cl)cc1N3 [Compound 2]
2,60 to 80%,CN1CCCCCOc2cc3c(ncnc3cc2OCCCNCCS(C)(=O)=O)Nc2cc(Br)ccc2C1 [Compound 14]
3,10 to 30%,CC(=O)N(CCO)CCCOc1cc2ncnc3c2cc1OCCCNC(=O)[C@H](C)N(C)Cc1cc(F)c(Cl)cc1N3 [Compound 5]
4,10 to 30%,C[C@H]1C(=O)NCCCOc2cc3c(ncnc3cc2OCCCN2CCN(C(=O)OC(C)(C)C)CC2)Nc2cc(Cl)c(F)cc2CN1C [Int. 16]
5,30 to 60%,COCCOCCOc1cc2ncnc3c2cc1OCCCCCN(C)Cc1ccc(Br)cc1N3 [Int. 43]
6,60 to 80%,CN1CCCCCOc2cc3c(ncnc3cc2OC[C@@H](O)CN2CCS(=O)(=O)CC2)Nc2cc(Br)ccc2C1 [Compound 12]
7,> 80%,CC(=O)NCCNCCCOc1cc2ncnc3c2cc1OCCCCCN(C)Cc1ccc(Br)cc1N3 [Compound 13]
8,60 to 80%,CN1CCCCCOc2cc3c(ncnc3cc2OCCCN2CCS(=O)(=O)CC2)Nc2cc(Cl)c(F)cc2C1 [Compound 19]
9,> 80%,C#Cc1ccc2c(c1)Nc1ncnc3cc(OCCCNCCS(C)(=O)=O)c(cc13)OCCCCCN(C)C2 [Compound 20]
10,10 to 30%,CN1CCCCCOc2cc3c(ncnc3cc2OCCCNC(=O)OC(C)(C)C)Nc2cc(Br)ccc2C1 [Compound 11]
